These results are taken from patent US20040192738A1, “2-(Butyl-1-sulfonylamino)-N-[1(R)-(6-methoxypyridin-3-yl)propyl] benzamide, its use as a medicament, and pharmaceutical preparations comprising it” (Aventis Pharma Deutschland GmbH, priority 2003, published 2004).

Where “and” joins values, the source holds several entries; their conditions need not be identical. Equal entries are not always repeated.

Data set [1] relates to left atrium of the anesthetized pig. Kind of data set: Refractory period and left-atrial vulnerability in the anesthetized pig. The format is in vivo. The settings on record: for % inhibition of the arrhythmias: arrhythmias induced by premature extra-stimulus (S2) in the left atrium, 3 mg/kg; for % inhibition of the arrhythmias / % increase in the refractory period: mean value; for % increase in the refractory period: left atrium, 10 minutes after injection, mean of three rates (150, 200 and 250/min); for antiarrhythmic action: model on the anesthetized pig. Here is the method:
Investigation of the Refractory Period and the Left-Atrial Vulnerability in the Pig
In the course of this, the refractory period of the left atrium was determined and the antiarrhythmic activity was recorded as described in the literature (Knobloch et al. 2002. Naunyn-Schmiedberg's Arch. Pharmacol. 366; 482-487). The anti-arrhythmic action relates here to the inhibition of the occurrence of episodes of arrhythmias which are induced by a prematurely placed extra-stimulus (S2) in the left atrium (=left-atrial vulnerability).
The refractory period values are stated in percent of the basal values 10 minutes after injection. Mean values for the refractory periods are shown from three rates (150, 200 and 250/min).
By repeated measurement after substance administration, the duration of action of a substance on the refractory period can be determined in this experimental procedure. The R enantiomer was infused intravenously over the course of 100 minutes in a dose of 1 mg/kg and the pharmacological action was determined over the course of 280 minutes.

The nature of data set [2]: Effect on QTc interval and inotropic or hemodynamic side effects. The following applies: in vivo.
Setting [3] is: anesthetized pig, bolus 3 mg/kg.

For the compound `CCCCS(=O)(=O)Nc1ccccc1C(=O)N[C@@H](CC)c1ccc(OC)nc1` [S enantiomer, 2-(butyl-1-sulfonylamino)-N-[1(S)-(6-methoxypyridin-3-yl)propyl]benzamide], in data set [1] (setting [3]), the “% inhibition of the arrhythmias” value is 27% and 27.3%; the “% increase in the refractory period” value was found to be 8.8%. Also, the antiarrhythmic action result in data set [1] (result in words) is reported as “more weakly active”.

With `CCCCS(=O)(=O)Nc1ccccc1C(=O)N[C@H](CC)c1ccc(OC)nc1` [formula I, 2-(butyl-1-sulfonylamino)-N-[1(R)-(6-methoxypyridin-3-yl)propyl]benzamide], the melting point (usually the temperature, or range, at which the solid turns liquid) came to 97 °C. In addition, the “duration of action on the left-atrial refractory period after ending the infusion” value in data set [1] (anesthetized pig, 1 mg/kg intravenous infusion over 100 minutes, observed over 280 minutes, FIG. 1) was not below 180 min. The “% inhibition of the arrhythmias” value in data set [1] (anesthetized pig, bolus 3 mg/kg, listed as R enantiomer) was found to be 73.9%. Further, in data set [1] (anesthetized pig, bolus 3 mg/kg, result in words), the “prolongation of the refractory period (comparison of enantiomers)” value is “markedly greater prolongation of the refractory period than the S enantiomer”. For the same compound, in data set [1] (setting [3]), the “% increase in the refractory period” value is 19%. Further, the antiarrhythmic action result in data set [1] (result in words) was “excellent”. Further, in data set [2], the “effect on the QTc interval” value was “no effect” and the “negative inotropic or hemodynamic side effects” value was “no negative inotropic or hemodynamic side effects”.
